In article PMC8012719 (Frontiers in Pharmacology, 2021):
≈ marks a conversion by molar mass, not a printed value. Where “and” joins values, the source holds several entries; their conditions need not be identical. Equal values may be shown once. Where a name gives a salt, the structure may show the parent alone. Read-outs that look alike come from different tables or passages of the source.

How the values were obtained:
[1] = test system: pRABV (pseudovirus enveloped by the RABV glycoprotein G); assay: microbe, parasite or virus in culture; type: cell-based, rabies virus; conditions: for EC50: read-out: pRABV EC50
[2] = test system: pVSV (pseudovirus expressing a vesicular stomatitis virus envelope glycoprotein); assay: microbe, parasite or virus in culture; type: cell-based; conditions: for EC50: read-out: pVSV EC50
in vitro [3] = conditions: human
RABV CVS strain [4] = assay: microbe, parasite or virus in culture; type: cell-based, rabies virus; conditions: for EC50: read-out: CVS EC50
Rabies virus CVS strain = conditions: mouse, in vivo
in vitro [5] = conditions: cat
RABV [6] = assay: microbe, parasite or virus in culture; type: cell-based; conditions: Lyssavirus rabies, in Felis catus
RABV CVS strain [7] = type: cell-based, rabies virus
in vitro [8] = conditions: hamster
RABV [9] = target: RABV; design: species or system rabies virus; conditions: read-out: binding affinity (KD)
RABV [10] = conditions: cited from earlier work
RABV vaccine strain = conditions: cited from earlier work
rabies infection = conditions: mouse, in vivo; cited from earlier work

SMILES	SI pRABV [1]	EC50 ([1]; Pseudovirus, HEK-293T, 48 h) [µM]	EC50pVSV/EC50pRABV [2]	EC50 ([2]; Pseudovirus, HEK-293T) [µM]	CC50 (in vitro [3]) [µM]	SICVS (RABV CVS strain [4])	EC50 (RABV CVS strain [4]; Lyssavirus rabies, 24 h) [µM]	EC50 (RABV CVS strain [4]) [µM]	also measured
CCOC(=O)C1=C(COCCN)NC(C)=C(C(=O)OC)C1c1ccccc1Cl (stereo not drawn) [Amlodipine besylate]	26.8	1.4	19.4	26.4	36.3	1.0	37.4	–	–
CCOC(=O)C1=C(COCCN)NC(C)=C(C(=O)OC)C1c1ccccc1Cl (stereo not drawn) [Amlodipine maleate]	17.9	–	13.3	–	–	0.9	–	37.8	EC50 [1]: 1.9 µM; EC50 [2]: 25.8 µM; CC50 (293T cells): 34.9 µM
CCN(CC)Cc1cc(Nc2ccnc3cc(Cl)ccc23)ccc1O [Amodiaquine hydrochloride]	20.3	4.2	5.8	24.3	84.9	5.7	14.8	–	–
CC(C)N=c1cc2n(-c3ccc(Cl)cc3)c3ccccc3nc-2cc1Nc1ccc(Cl)cc1 [CFZA, Clofazimine aspirin salt]	–	–	–	–	–	–	–	1.2	survival rate at 14 dpi (Rabies virus CVS strain): 25%
CC(C)N=c1cc2n(-c3ccc(Cl)cc3)c3ccccc3nc-2cc1Nc1ccc(Cl)cc1 [CFZG, Clofazimine gallic acid salt]	–	–	–	–	–	–	–	2.07	percentage of sick mice at five dpi (Rabies virus CVS strain): 40%; survival rate compared with the control (Rabies virus CVS strain): no improvement on the survival rate
CC(C)N=c1cc2n(-c3ccc(Cl)cc3)c3ccccc3nc-2cc1Nc1ccc(Cl)cc1 [CFZH, Clofazimine hydrochloride salt]	–	–	–	–	–	–	–	1.2	survival rate compared with the control (Rabies virus CVS strain): no improvement on the survival rate
CC(C)N=c1cc2n(-c3ccc(Cl)cc3)c3ccccc3nc-2cc1Nc1ccc(Cl)cc1 [CFZM, Clofazimine methanesulfonate]	–	–	–	–	–	–	–	2.5	survival rate compared with the control (Rabies virus CVS strain): no improvement on the survival rate
CC(C)N=c1cc2n(-c3ccc(Cl)cc3)c3ccccc3nc-2cc1Nc1ccc(Cl)cc1 [CFZS, Clofazimine salicylates]	–	–	–	–	–	–	–	1.2	CC50 (in vitro [5]): 670 µM; percentage of sick mice at five dpi (Rabies virus CVS strain): 40%; survival at 14 dpi (Rabies virus CVS strain): 50% and 40%; survival rate at 14 dpi (Rabies virus CVS strain): 30%; redness in the skin (Rabies virus CVS strain; po): No redness in the skin; EC50 (RABV [6]): 4.71 µM
N.N.[Cl][Pt][Cl] [Cisplatin]	>5.1	–	>5.1	–	–	>3.0	–	67	EC50 [1]: 39.1 µM; EC50 [2]: > 200 µM; CC50 (293T cells): > 200 µM
CC(C)/N=c1\cc2n(-c3ccc(Cl)cc3)c3ccccc3nc-2cc1Nc1ccc(Cl)cc1 [Clofazimine]	–	1.7	–	10.5	> 200	–	2.28	2.28	CC50 (in vitro [5]): 144 µM; antiviral efficacy (survival) (Rabies virus CVS strain): did not show any antiviral efficacy; percentage of sick mice at five dpi (Rabies virus CVS strain): 50%; survival at 14 dpi (Rabies virus CVS strain): 30%; survival rate at 14 dpi (Rabies virus CVS strain): 10%; solubility (physchem): 0.29 µg/mL (≈ 0.613 µM); inhibitory effect on RABV infection (RABV CVS strain [7]): strong inhibitory effect; suppression of fluorescence activity (RABV infection) (RABV CVS strain [7]): no suppression of fluorescence activity; CC50 (in vitro [8]): > 2200 µM; concentrations inhibiting RABV (RABV CVS strain [4]): 2 to 33 µM; EC50 (RABV [6]): 4.24 µM; Kd (RABV [9]): 4.32 µM
CC(CN1c2ccccc2S(=O)(=O)c2ccccc21)N(C)C.Cl (stereo not drawn) [Dioxopromethazine hydrochloride]	>5.5	–	>5.5	–	–	>3.0	–	67	EC50 [1]: 36.7 µM; EC50 [2]: > 200 µM; CC50 (293T cells): > 200 µM
CCc1c2c(nc3ccc(OC(=O)N4CCC(N5CCCCC5)CC4)cc13)-c1cc3c(c(=O)n1C2)COC(=O)[C@]3(O)CC.Cl [Irinotecan hydrochloride]	>5.9	–	>5.9	–	–	1.2	–	67	EC50 [1]: 33.6 µM; EC50 [2]: > 200 µM; CC50 (293T cells): > 200 µM
CNC1(c2ccccc2Cl)CCCCC1=O (stereo not drawn) [Ketamine]	–	–	–	–	–	–	–	–	concentrations inhibiting RABV replication (RABV [10]): 1 to 2 mM
CN1CCC(=C2c3ccccc3CC(=O)c3sccc32)CC1 [Ketotifen fumarate]	>18	10.8	8.1	87.8	> 200	>3.0	67	–	–
CNCCCC12CCC(c3ccccc31)c1ccccc12 [Maprotiline hydrochloride]	–	–	–	–	52	>4.5	–	–	–
CN1CCC(=C2c3ccccc3CCc3sccc32)CC1 [Pizotifen]	32.3	3.1	8.2	25.7	100	1.5	67	–	–
NC(=O)c1nc(F)cnc1O [T-705, 6-fluoro-3-hydroxy-2-pyrazinecarboxamide]	–	–	–	–	–	–	–	–	EC50 (RABV vaccine strain): 32.4 µM; survival at 14 dpi (Rabies virus CVS strain; po, 300 mg/kg/day): 40%; viral replication in the CNS (rabies infection): suppress viral replication in the CNS
CCCCNc1ccc(C(=O)OCCN(C)C)cc1 [Tetracaine hydrochloride]	>3	65.8	>3	> 200	> 200	>3.0	67	–	–
